experiment: Comment Code material properties: vapor pressure, ClogP, probability of ingredient color instability, odor detection threshold, melamine formaldehyde PMC headspace response ratio and leakage, liquid dish neat product liquid-air partition coefficient; format: physicochemical; settings: Table 1 materials; each letter of the code is one property class (vapor pressure, ClogP, color instability, odor detection threshold, PMC headspace ratio, PMC leakage, liquid dish liquid-air partition coefficient)

| SMILES | Comment Code |
| --- | --- |
| CC1(C)CCC[C@@]2(C)[C@H]1CC[C@]13CO[C@](C)(CC[C@@H]12)O3 [Material 678] | DEFHJ |
| CCC(C)CCCC(C)C=O (stereo not drawn) [Material 866] | ADFGIJKL |
| C/C(=C/C#N)CCc1ccccc1 [Material 892] | DEFHJK |
| CC1=CCC2(C)CCCC(C)(C)C23CC13 (stereo not drawn) [Material 1060] | BDEFGJKL |
| C=C1CCC2C(C3C(C)CCC13)C2(C)C (stereo not drawn) [Material 750] | BDEFHJKL |
| CC(=CCC1CC=C(C)C1(C)C)CO (stereo not drawn) [Material 1025] | CHJK |
| C=C1CCC=C(C)CCC2C1CC2(C)C (stereo not drawn) [Material 633] | DEFHJKL |
| CC1=CCC(CCC(C)C(C)O)C1(C)C (stereo not drawn) [Material 1023] | DEFHJK |
| CCCCCCCCCC=CC=O [Material 806] | BDFHJK |
| CCC=CCCC=CC=O [Material 864] | ACHKL |
| OCCOc1ccccc1 [Material 834] | BCEFGIK |
| C=CCOC(=O)COCCC(C)C [Material 748] | BCEFGJK |
| C=CCCCCCCCCC(=O)OCCCC [Material 599] | DEFHJK |
| CC(O)CO (stereo not drawn) [Material 993] | ACEFGIKL |
| CCC(=O)OCC(=O)OC(C)C1CCCC(C)(C)C1 (stereo not drawn) [Material 1009] | DFHJ |
| C=C1CCC2C3C(C(C)C)CCC2(C)C13 (stereo not drawn) [Material 631] | BDEFHJKL |
| C=C1CC[C@@H]2[C@H]([C@H]3[C@H]1CC[C@]3(C)O)C2(C)C [Material 1035] | DEFHJK |
| C=C1CCCC(C)(C)C1C(=O)OC (stereo not drawn) [Material 1010] | ADHIJKL |
| O=C(OCCc1ccccc1)c1ccccc1 [Material 967] | DHJ |
| C=C(C)C1CC=C(C)CC1 (stereo not drawn) [Material 702] | ADEFGIJKL |
| C=C(C)C1CC=C(CO)CC1 (stereo not drawn) [Material 948] | CHIJK |
| CCCCCCC1OC(=O)CC1C (stereo not drawn) [Material 941] | BDEFHIJKL |
| C=C(C)C1CCC(C)(O)CC1 (stereo not drawn) [Material 612] | BCGIJK |
| CC1=CCCC2(C)CCC(C(C)(C)O)CC12 (stereo not drawn) [Material 712] | DEFHJK |

| SMILES | Comment Code |
| --- | --- |
| C=CCCCCCCCCC=O [Material 871] | ADHJK |
| C=C1C=CC(C(C)CCC=C(C)C)CC1 (stereo not drawn) [Material 614] | DEFHJK |
| CCCCCC1C(=O)CCC1CC(=O)OC (stereo not drawn) [Material 1083] | DFHJK |
| CC1(O)CCC2=C(CCCC2(C)C)C1 (stereo not drawn) [Material 675] | DEFHJK |
| CCCCCCCCCCCC(=O)OCc1ccccc1 [Material 644] | DEFHJ |
| CC12CCC(CC1)C(C)(C)S2 [Material 873] | ADEFHIJKL |
| CCCCCCC/C=C/C=O [Material 1067] | ADHKL |
| C=C1C2CCC(C2)C1(C)CCC=C(C)CO (stereo not drawn) [Material 616] | DEFHJK |
| CCCCCCCC/C=C\CC=O [Material 884] | BCFHJK |
| CC(C)(C)C(=O)OC1CC2CC1C1CC=CC21 (stereo not drawn) [Material 978] | DEFHJK |
| CC(=CCCC1(C)C2CC3C(C2)C31C)CO (stereo not drawn) [Material 694] | DEFHJK |
| CCCCCCCCO [Material 580] | ACEFGIKL |
| C=CCCC(=O)c1ccccc1 [Material 792] | BCEFHIK |
| C/C(=C\C#N)CCc1ccccc1 [Material 894] | CEFHJK |
| C[C@@H]1CC[C@H]2C(C)(C)[C@H]3C[C@@]12CC1OC(C)(C)OC13C (stereo partly drawn) [Material 674] | DEFHJK |
| CC/C=C\CC/C=C/C=O [Material 1066] | ACHKL |
| N#CC(=C1CCCCC1)c1ccccc1 [Material 945] | DFHJK |
| CC/C=C\C/C=C/CCO [Material 1072] | ACEFHK |
| C=CC/C=C/CCC(=O)OC [Material 668] | ACEFHKL |
| C[C@@H]1CC[C@H]2C(C)(C)[C@H]3C[C@@]12CC[C@@]3(C)O [Material 569] | DEFHJK |
| CC1=C2CC(C(C)(C)O)CCC2(C)CCC1 (stereo not drawn) [Material 872] | DFHJK |
| CCC=CCC=CCCO [Material 929] | ACEFHK |
| CC(OC(C)(C)COC(=O)C1CC1)C1CCCC(C)(C)C1 (stereo not drawn) [Material 1032] | DEFHJ |
| CC(C)=C1CCC2=CC(=O)CC(C)C2(C)C1 (stereo not drawn) [Material 684] | DHJK |

same assay, conditions: cell strings several class symbols together; each letter is one property class of L1

| SMILES | Comment Code |
| --- | --- |
| CC1(C)CCC[C@@]2(C)[C@H]1CC[C@]13CO[C@](C)(CC[C@@H]12)O3 [Material 678] | DEFHJ |
| CC1=CCC2(C)CCCC(C)(C)C23CC13 (stereo not drawn) [Material 1060] | BDEFGJKL |
| C=C1CCC2C(C3C(C)CCC13)C2(C)C (stereo not drawn) [Material 750] | BDEFHJKL |
| C[C@@H]1CC[C@H]2[C@@H]1[C@H]1[C@@H](CC[C@]2(C)O)C1(C)C [Material 1140] | DEFHJK |
| CCCCCC1CCCC1=O (stereo not drawn) [Material 469] | BDFHIKL |
| C=CC(C)(O)CCC=C(C)C (stereo not drawn) [Material 157] | BCEFGIJK |
| CC(=O)C1=C(C)[C@@H]2C[C@@]3(C1)[C@H](C)CC[C@H]3C2(C)C [Material 1129] | DHJK |
| Cc1ccnc2ccccc12 [Material 166] | BCEFHIKL |
| COc1ccc(COC(C)=O)cc1 [Material 664] | BCEFGK |
| C=C(C)C1CC=C(C)C(=O)C1 (stereo not drawn) [Material 902] | ACGIJKL |
| Cc1cc2c(cc1C#N)C(C)(C)C(C)C(C)C2(C)C (stereo not drawn) [Material 1142] | DHJ |
| CC(=O)OC(C)C1CCCC(C)(C)C1 (stereo not drawn) [Material 1011] | ADHIJKL |
| C=C(C=O)C(C)CCC=C(C)C (stereo not drawn) [Material 819] | ADFHIJK |
| CC/C=C\CCOC(=O)C1CC1 [Material 84] | BCEFHIKL |
| COc1ccccc1C=CC=O [Material 26] | ACHK |
| CC(C)CCOC(=O)C(C)C [Material 239] | ACEFGIJKL |
| CCOC(=O)OC1CCCCC1C(C)(C)C (stereo not drawn) [Material 355] | BDFHJK |
| CC(=O)OC(C)CC(C)(C)c1ccccc1 (stereo not drawn) [Material 1134] | BDFHJK |
| C=C1CCC2C3C(C(C)C)CCC2(C)C13 (stereo not drawn) [Material 631] | BDEFHJKL |
| CC1OC(C)C2Cc3ccccc3C2O1 (stereo not drawn) [Material 141] | CEFHJK |
| C=C1CC[C@@H]2[C@H]([C@H]3[C@H]1CC[C@]3(C)O)C2(C)C [Material 1035] | DEFHJK |
| O=Cc1ccc2c(c1)OCO2 [Material 287] | BCGIK |
| C=C(C)COCC/C=C\CC [Material 1141] | ADEFHKL |

| SMILES | Comment Code |
| --- | --- |
| C/C=C(\C)C(=O)OCCc1ccccc1 [Material 960] | DHJK |
| COC1=C(C)OC(C)C1=O (stereo not drawn) [Material 740] | ACEFGIJKL |
| CC(C)CCCC(C)CCO (stereo not drawn) [Material 820] | BDEFGIJKL |
| CC1=CCCC2(C)CCC(C(C)(C)O)CC12 (stereo not drawn) [Material 712] | DEFHJK |
| C=CC(C)(C#N)Cc1ccccc1 (stereo not drawn) [Material 504] | BDHJK |
| C1CC2C3CC(C2C1)C1(CCCO1)C3 (stereo not drawn) [Material 1137] | DEFGJKL |
| CCCCCC1=C(C)CCC1=O [Material 438] | BCFHIJKL |
| CC/C=C\CCOC(=O)CCCC [Material 535] | BDEFHJKL |
| C=C1C2CCC(C2)C1(C)CCC=C(C)CO (stereo not drawn) [Material 616] | DEFHJK |
| CCOC(=O)OC1CCCCC1C(C)(C)C (stereo not drawn) [Material 365] | ACFHIKL |
| CCc1ccc(OC)c(O)c1 [Material 797] | CEFHIK |
| C/C=C\c1ccc(O)c(OC)c1 [Material 528] | CEFHIK |
| CC(C)(C)C(=O)OC1CC2CC1C1CC=CC21 (stereo not drawn) [Material 978] | DEFHJK |
| CC(=CCCC1(C)C2CC3C(C2)C31C)CO (stereo not drawn) [Material 694] | DEFHJK |
| CC(O)CCC1C(C)CCCC1(C)C (stereo not drawn) [Material 1052] | BDEFHIJK |
| O=C1CCCCCCC/C=C/CCCCCCC1 [Material 501] | DEFGJ |
| COC(C)(C)C1CC=C(C)CC1 (stereo not drawn) [Material 20] | ADHIJKL |
| C[C@@H]1CC[C@H]2C(C)(C)[C@H]3C[C@@]12CC1OC(C)(C)OC13C (stereo partly drawn) [Material 674] | DEFHJK |
| C/C=C/c1ccc(O)c(OC)c1 [Material 1084] | CEFHIK |
| C[C@@H]1CC[C@H]2C(C)(C)[C@H]3C[C@@]12CC[C@@]3(C)O [Material 569] | DEFHJK |
| CC(=O)OCCC1CCCCC1 [Material 481] | BDEFHJKL |
| CC1=C(C/C=C(\C)C=O)C(C)(C)CCC1 [Material 602] | DHJK |
| CC(C)=C1CCC2=CC(=O)CC(C)C2(C)C1 (stereo not drawn) [Material 684] | DHJK |

same assay, conditions: letter codes A-L: vapor pressure, ClogP, probability of ingredient color instability, odor detection threshold, PMC headspace response ratio, PMC leakage, liquid dish liquid-air partition coefficient; Table 1 materials with at least one MORV from 1 to 5

| SMILES | Comment Code |
| --- | --- |
| C[C@@H]1CC[C@H]2[C@@H]1[C@H]1[C@@H](CC[C@]2(C)O)C1(C)C [Material 1140] | DEFHJK |
| CC(=O)C1=C(C)[C@@H]2C[C@@]3(C1)[C@H](C)CC[C@H]3C2(C)C [Material 1129] | DHJK |
| Cc1cc2c(cc1C#N)C(C)(C)C(C)C(C)C2(C)C (stereo not drawn) [Material 1142] | DHJ |
| C1CC2C3CC(C2C1)C1(CCCO1)C3 (stereo not drawn) [Material 1137] | DEFGJKL |
| COCc1ccc(O)c(OC)c1 [Material 1113] | CGIK |

From patent US20160089464A1, “MALODOR REDUCTION COMPOSITIONS” (The Procter & Gamble Company, priority 2014, published 2016)
